# Data: patent US20200407712A1, “ARRAY-BASED CYCLIC PEPTIDE LIBRARIES” (HealthTell Inc., priority 2018, published 2020)
# What was measured:
# [1] = test system: Ferredoxin; assay: Biotinylated ferredoxin counter screen on linear and lactam constrained peptide microarrays; format: binding; conditions: 10.0 nM biotinylated protein, detected with Streptavidin-Alexa Fluor 555; for Ferredoxin Lactam, log 10 transformed median intensity: lactam constrained library peptide; for Ferredoxin Linear, log 10 transformed median intensity: linear library peptide
# Source text: (§1) Diaphorase is NAD(P)H dehydrogenase (UniProtKB: P15559) encoded by the NQO1 gene. Diaphorase has utility as a model enzyme; for which peptide based synthetic affinity agents to diaphorase are required. A 3.3 million feature peptide array was used to identify potential binding partner peptides for diaphorase. Ferredoxin NADP+ Reductase (FNR) and Ferredoxin are included as counter screens for a specific application, while immunoglobulin depleted human serum (Non-Immunoglobulin Serum Components or NISC) was used as a complex mixture to control for generally sticky peptides.
# (§2) Peptide arrays were prepared for protein binding by pretreating the arrays in PBST for 30 min at […]. Direct labeled diaphorase (Alexa Fluor™ 555), direct labeled FNR (Alexa Fluor™ 555) and biotinylated ferredoxin were applied to the arrays at 1.0 and 10.0 nM along with direct labeled NISC at 0.001 mg/mL for 1 hr at 37° C. Arrays were washed 3× with PBST and Streptavidin-Alexa Fluor™ 555 was applied to the biotinylated ferredoxin and streptavidin alone arrays. All other arrays received PBST and were incubated for 1 hr at 37° C. Arrays were washed with PBST and p53Ab1-Alexa Fluor™ 647 applied to all arrays to illuminate the edge fiducials for 10 min at 37° C. Following the final incubation arrays were washed in PBST and water, dried and imaged on the ImageXpress ([…]). Triplicate arrays were used for the subsequent analysis except for when rejection of an array was necessary due to the presence of artifacts. Data were analyzed using a custom R script.
# [2] = test system: Ferredoxin NADP+ Reductase (FNR); assay: FNR counter screen on linear and lactam constrained peptide microarrays; format: binding; conditions: 10.0 nM protein applied to the array; for FNR Lactam, log 10 transformed median intensity: lactam constrained library peptide; for FNR Linear, log 10 transformed median intensity: linear library peptide
# Source text: as §1, §2
# [3] = test system: Non-Immunoglobulin Serum Components (NISC); assay: NISC counter screen on linear and lactam constrained peptide microarrays; format: binding, human; conditions: 0.001 mg/mL NISC applied to the array; for NISC Lactam, log 10 transformed median intensity: lactam constrained library peptide; for NISC Linear, log 10 transformed median intensity: linear library peptide
# Source text: as §1, §2
# Peptides were also selected based on the difference in log 10 transformed intensities between diaphorase and NISC as the counter screen agent (LFGdiaphorase minus LFGNISC). Intensities for 10.0 nM diaphorase and 0.001 mg/mL NISC are shown in FIG. 29A where intensities plotted are the log 10 transformed median intensity from replicate arrays. Coloring of the points represents the density of features at that intensity using a grey colorscale. Light grey represents areas of low peptide numbers while black represents the intensity having the highest number of peptides. The diagonal line is equivalence line. Selectivity vs NISC was not dependent on cyclization as diaphorase also bound the linear forms for some peptides (Table 4). Three peptides having the highest degree of cyclization in the quality control assay were identified and binding intensities compared to other library peptides having one or two amino acid substitutions (FIG. 30) Each CLUSTAL alignment contains the library peptides having a maximum of two substitutions to the parent peptide. Dark grey highlights indicate a residue conserved in more than 60% of the peptides. Light grey highlights indicate chemically similar amino acids to the conserved residue. The amino acid usage is indicated in the sequence logo above the alignment. Substitutional analysis provides confidence in the array data by indicating which residues are important for binding.
# [4] = target: Streptavidin (Streptomyces avidinii, UniProt P22629); assay: Streptavidin-Alexa Fluor 555 alone on linear and lactam constrained peptide microarrays; format: binding; conditions: for Streptavidin Lactam, log 10 transformed median intensity: lactam constrained library peptide; for Streptavidin Linear, log 10 transformed median intensity: linear library peptide
# Chain of Streptavidin (P22629 25-183, species assumed): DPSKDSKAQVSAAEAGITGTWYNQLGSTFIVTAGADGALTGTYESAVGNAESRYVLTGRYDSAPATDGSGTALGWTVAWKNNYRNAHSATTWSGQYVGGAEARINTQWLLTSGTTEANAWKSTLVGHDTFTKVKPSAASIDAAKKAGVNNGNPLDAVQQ
# Method: as §2
# [5] = target: T1, human diaphorase (NQO1) (Homo sapiens, UniProt P15559); assay: Alexa Fluor 555-diaphorase binding to linear and lactam constrained peptide microarrays; conditions: 10.0 nM protein applied to the array; for Diaphorase Lactam, log 10 transformed median intensity: lactam constrained library peptide; for Diaphorase Linear, log 10 transformed median intensity: linear library peptide
# T1 construct: purchased SigmaAldrich
# T1 sequence (P15559 whole entry): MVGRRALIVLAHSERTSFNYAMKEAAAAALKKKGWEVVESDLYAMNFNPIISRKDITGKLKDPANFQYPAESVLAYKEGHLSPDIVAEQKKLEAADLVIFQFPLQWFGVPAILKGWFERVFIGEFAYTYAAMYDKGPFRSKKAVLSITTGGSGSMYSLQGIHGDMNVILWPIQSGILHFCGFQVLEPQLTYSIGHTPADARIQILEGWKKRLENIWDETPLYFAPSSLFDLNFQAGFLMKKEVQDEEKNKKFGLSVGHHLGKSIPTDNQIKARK
# Source text: as §1
# Two wafers from the same synthesis batch were obtained where one wafer was prepared with the lactam chemistry and constrained into a cyclized form. The degree of cyclization was confirmed using the biotinylation assay described in Examples 9, 17, and 19.
# as §2
# Intensities plotted are the log 10 transformed median intensity from replicate arrays. Coloring of the points represents the density of features at that intensity using a gray-scale map. Light grey represents areas of low peptide numbers while black represents the intensity having the highest number of peptides. The diagonal line is equivalence line. […] CLUSTAL sequence alignment (FIG. 27B) of the sequences indicated similarities in amino acid composition. Highlighted amino acids are conserved in over 60% of the peptides for that position or are a chemically similar amino acid (ie: F and Y).
# The sequences contain similar amino acid usage. Four peptides having the highest degree of cyclization in the quality control assay were identified and binding intensities compared to other library peptides having one or two amino acid substitutions as shown in FIG. 28. Substitutional analysis provides confidence in the array data by indicating which residues are important for binding. Dark grey boxes highlight indicate a residue conserved in more than 60% of the peptides. Light grey boxes highlight indicate chemically similar amino acids to the conserved residue. RFI is the intensity is the median replicate log 10 intensity for the 10.0 nM Diaphorase.
Substance,"Ferredoxin Lactam, log 10 transformed median intensity [1]","Ferredoxin Linear, log 10 transformed median intensity [1]","FNR Lactam, log 10 transformed median intensity [2]","FNR Linear, log 10 transformed median intensity [2]","NISC Lactam, log 10 transformed median intensity [3]","NISC Linear, log 10 transformed median intensity [3]","Streptavidin Lactam, log 10 transformed median intensity [4]","Streptavidin Linear, log 10 transformed median intensity [4]","Diaphorase Lactam, log 10 transformed median intensity [5]","Diaphorase Linear, log 10 transformed median intensity [5]"
"IGPNPKNN [library array peptide, tested lactam constrained and linear]",2.56,2.59,2.54,2.57,2.65,2.78,2.52,2.52,4.34,4.22
"PFSGQPNS [library array peptide, tested lactam constrained and linear]",2.59,2.59,2.58,2.58,2.67,2.63,2.57,2.56,4.38,3.70
"PGKPNTQ [library array peptide, tested lactam constrained and linear]",2.55,2.63,2.54,2.7,2.68,2.84,2.51,2.53,4.36,4.15
"PNYSSAP [library array peptide, tested lactam constrained and linear]",2.56,2.55,2.56,2.54,2.63,2.61,2.52,2.52,4.31,3.91
"PPYPNQYQ [library array peptide, tested lactam constrained and linear]",2.58,2.58,2.55,2.56,2.69,2.69,2.53,2.53,4.39,4.04
"PPYTYANN [library array peptide, tested lactam constrained and linear]",2.56,2.55,2.54,2.53,2.66,2.63,2.53,2.52,4.35,4.00
"PTSSYLN [library array peptide, tested lactam constrained and linear]",2.56,2.55,2.53,2.53,2.63,2.61,2.52,2.53,4.32,3.75
"PYSNVFQG [library array peptide, tested lactam constrained and linear]",2.59,2.57,2.56,2.56,2.72,2.66,2.54,2.54,4.43,3.88
"QPQSQQSQ [library array peptide, tested lactam constrained and linear]",2.56,2.56,2.55,2.55,2.59,2.59,2.53,2.54,4.28,3.42
"TFGFNGFP [library array peptide, tested lactam constrained and linear]",2.70,2.55,2.59,2.55,3.49,2.62,2.53,2.52,4.49,2.84
"TFSSFAPV [library array peptide, tested lactam constrained and linear]",2.70,2.55,2.56,2.55,3.36,2.65,2.53,2.53,4.52,2.86
"TISYPLTP [library array peptide, tested lactam constrained and linear]",2.84,2.55,2.56,2.53,3.49,2.59,2.54,2.53,4.55,2.86
